Usually IC50 stands for the midpoint of a concentration-inhibition curve.

The target in one assay is T1, AtOASTL-B (Arabidopsis thaliana, UniProt P47999).
T1 construct: gene OASB; recombinant, expressed in E. coli (Wirtz et al. 2004)
The experiment in a line: OASTL activity assay (Gaitonde); […]-1 pmol enzyme, turnover only. The assay is classed as biochemical. The conditions noted are these: co-substrate sulfide; control without SERAT.

The next assay has as its target T2, VvSERAT2;1 (Vitis vinifera, UniProt F6HCV5).
T2 construct: gene VIT_00s0194g00120; N-terminal His tag (pET28a), E. coli; lacks predicted transit peptide (57 residues predicted); naturally lacks canonical C-terminal tail; free SERAT without OASTL
T2 sequence (F6HCV5 58-306): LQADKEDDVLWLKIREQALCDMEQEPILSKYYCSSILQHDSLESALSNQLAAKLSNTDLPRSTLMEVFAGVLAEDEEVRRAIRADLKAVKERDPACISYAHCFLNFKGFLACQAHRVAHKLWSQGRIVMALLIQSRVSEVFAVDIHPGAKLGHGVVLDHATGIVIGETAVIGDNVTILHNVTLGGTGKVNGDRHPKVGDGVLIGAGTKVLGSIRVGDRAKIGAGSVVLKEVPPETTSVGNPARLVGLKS
The experiment in a line: SERAT activity assay, titration with cysteine up to […]. The conditions noted are these: read-out: Cys Inhibition (IC50 mM). In kind it is biochemical.

T1 sequence (P47999 61-392): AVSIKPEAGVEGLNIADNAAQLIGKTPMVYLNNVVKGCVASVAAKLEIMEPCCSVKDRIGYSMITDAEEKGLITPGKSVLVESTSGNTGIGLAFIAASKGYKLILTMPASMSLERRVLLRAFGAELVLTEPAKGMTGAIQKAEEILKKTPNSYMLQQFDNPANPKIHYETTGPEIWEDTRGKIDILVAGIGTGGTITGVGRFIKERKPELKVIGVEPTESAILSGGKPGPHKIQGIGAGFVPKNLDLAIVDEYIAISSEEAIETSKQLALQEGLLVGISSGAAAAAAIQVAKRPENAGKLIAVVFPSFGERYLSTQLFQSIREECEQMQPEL

Consider `CC(=O)OC[C@H](N)C(=O)O` [O-acetylserine], for which the OASTL activity entry on AtOASTL-B is given as “Enzymatic activity of OASTL was determined according to Gaitonde”.

Consider `N[C@@H](CS)C(=O)O` [L-Cys], for which, at VvSERAT2;1, the half-maximal inhibitory concentration (IC50) came out at 1.9 ± 0.56 mM.

The values are drawn from publication PMC4330696, “Characterization of the serine acetyltransferase gene family of Vitis vinifera uncovers differences in regulation of OAS synthesis in woody plants” (Frontiers in Plant Science, 2015).
